In patent US11673865B2, “Cyclooctynes for click chemistry” (Massachusetts Institute of Technology, priority 2021, dated 2023):

Assays:
Type in all cases: physicochemical
[1] = 1,3-dipolar cycloaddition kinetics by HPLC
Description: (§1) The rates of reaction for the 1,3-dipolar cycloaddition of dipoles N-benzylazidoacetamide and N-benzyldiazoacetamide with compound 3 in both aprotic (CH2Cl2) and protic solvents (MeOH and PBS containing 2% v/v DMSO) were measured. The depletion of compound 3by using HPLC and second-order rate constants were calculated from the slope of a plot of [compound 3]^−1 versus time. As a benchmark, the rate of the reaction of DIBO with each dipole was also measured.
(§2) Kinetics General Method A. Stock solutions at the specified concentrations in the specified solvents were prepared for each dipole and dipolarophile. Aliquots (0.5 mL) of dipole and dipolarophile were mixed, and reactions were monitored by HPLC with aliquots injected at the timepoints shown in the kinetic traces below. Each reaction was carried out in triplicate. The concentration of remaining dipolarophile was obtained from its corresponding peak in the chromatogram monitored at 280 nm. Second-order rate constants were calculated from the slope of the plot of [dipolarophile]^−1 versus time.
Reaction of N-benzyldiazoacetamide with DIBO in CH2Cl2. Kinetics General Method A was followed using stock solutions at 2 mM and resulting in final reaction concentrations of 1 mM N-benzyldiazoacetamide and 1 mM DIBO.
Reaction of N-benzyldiazoacetamide with compound 3 in CH2Cl2. […]

[2] = 1,3-dipolar cycloaddition kinetics by HPLC; conditions: with N-benzylazidoacetamide; CH2Cl2 (FIG. 1)
Description: as §1, §2
Reaction of N-benzylazidoacetamide with DIBO in CH2Cl2. Kinetics General Method A was followed using stock solutions at 2 mM and resulting in final reaction concentrations of 1 mM N-benzylazidoacetamide and 1 mM DIBO.
Reaction of N-benzylazidoacetamide with compound 3 in CH2Cl2. […]

[3] = 1,3-dipolar cycloaddition kinetics by HPLC; conditions: CH2Cl2, 26° C., triplicate
Description: as §2
Reaction of compound 9 with compound 3 in CH2Cl2. Kinetics General Method A was followed using stock solutions at 80 μM and resulting in final reaction concentrations of 40 μM 2-Diazo-N-methyl-N-(phenylmethyl)acetamide and 40 μM compound 3.

[4] = 1,3-dipolar cycloaddition kinetics by HPLC; conditions: CH2Cl2 (FIG. 1)
Description: To assess the effect of the putative hydrogen bond, the reactivity of compound 3 and DIBO with ethyl diazoacetate, which lacks a hydrogen bond donor, was tested. The rate constant for the reaction of compound 3 with ethyl diazoacetate was nearly 200-fold lower than that with N-benzylazidoacetamide. This decrease is substantially greater than the 4-fold decrease in rate constant for the reaction of these same dipoles with DIBO (FIG. 1).
as §2
Reaction of ethyl diazoacetate with compound 3 in CH2Cl2. Kinetics General Method A was followed using stock solutions at 400 μM and resulting in final reaction concentrations of 200 μM ethyl diazoacetate and 200 μM compound 3.

[5] = 1,3-dipolar cycloaddition kinetics by HPLC; conditions: CH2Cl2, 26° C., triplicate; remark: listed apart in the source
Description: as §2
Reaction of 2-Azido-N-methyl-N-(phenylmethyl)acetamide with compound 3 in CH2Cl2. Kinetics General Method A was followed using stock solutions at 80 μM and resulting in final reaction concentrations of 40 μM 2-Azido-N-methyl-N-(phenylmethyl)acetamide and 40 μM compound 3.

[6] = Cyclooctyne stability in the presence of glutathione; conditions: 25 μM
Description: The stability of ABC in the presence of biological nucleophiles was determined using a biomimetic concentration of glutathione, which contains amino, carboxyl, and sulfhydryl groups. DIBAC was used as a comparator.
A solution of compound 3 (25 μM) or DIBAC (25 μM) was prepared in phosphate-buffered saline containing reduced glutathione (1.0 mM), oxidized glutathione (0.2 mM), and DMSO (2% v/v). The solutions were incubated at 37° C. (FIG. 6), and HPLC analyses were carried out every hour to determine the remaining concentration of dipolarophile. Subsequently, plots of In(concentration) versus time were prepared to calculate values of kobs for the degradation. These values were divided by the concentration of reduced glutathione to obtain second-order rate constants for the degradation with respect to reduced glutathione.

second-order rate constant of degradation with respect to reduced glutathione [6]	Molecule	rate increase of N-benzyl diazoacetamide over N-benzyl azidoacetamide ([1]; diazoacetamide over azidoacetamide)	rate increase relative to DIBO ([1]; with N-benzyl diazoacetamide, CH2Cl2 (FIG. 1))	rate increase relative to DIBO [2]	second-order rate constant k [3]	decrease in rate constant with ethyl diazoacetate relative to N-benzylazidoacetamide [4]	second-order rate constant k [5]	second-order rate constant of degradation with respect to reduced glutathione ([6]; 1 mM reduced and 0.2 mM oxidized glutathione in PBS containing DMSO (2% v/v), 37° C., HPLC)
0.10 M⁻¹ s⁻¹	Clc1ccc2c(c1)CCc1cccnc1C#C2 [compound 3, 2-Azabenzo-8-chlorobenzocyclooctyne]	~20 fold	1,200 fold	30 fold	0.75 M⁻¹ s⁻¹	~200 fold	1.0 M⁻¹ s⁻¹	
	dibenzoazacyclooctyne [DIBAC, reference compound]							0.05 M⁻¹ s⁻¹
